# Measurements from patent US8324280B2, “Treatment of prostate cancer with DDC inhibitor” (The University of British Columbia, priority 2008, dated 2012).
# Experiments:
# C4-2 cells = assay: MTS cell proliferation assay, androgen-independent C4-2 cells; format: cell-based, human; conditions: 25 μM
# Procedure: Cell proliferation assays were performed using the 3-(4,5-dimethylhiazol-2-yl)-5-(3-carboxymethoxyphenyl)-2-(4-sulfophenyl)-2H-tetrazolium Assay (MTS) according to the manufacturer's protocol, with minor modifications (Promega). C4-2 cells were plated in 96-well plates at a density of 750 cells per well in RPMI medium containing 5% CSS for 1 day. On the following day, the DDC inhibitors, carbidopa (25 μM) and NSD-1015 (10 μM)±0.1 nM R1881 were added to each well in charcoal-stripped serum (CSS; Hyclone, VWR) RPMI media. The cells were harvested at days 0, 2, 4, and 6, with a medium change every 3 days. Each time point was measured with 6 replicates.
# Student's t-test (two-sample equal variance) was used to evaluate statistically significant differences. All calculated p-values were two-sided and those less than 0.05 were considered statistically significant.
# C4-2 xenografts = assay: Androgen-independent C4-2 tumour xenografts in pre-castrated mice; format: in vivo
# Procedure: Parental C4-2 cells were inoculated subcutaneously (s.c.), after resuspension in 0.1 mL of Matrigel (Becton Dickinson Labware), into two flank regions (2.5×10^6 cells/site) of 6 to 8 week old castrated (to ensure tumors will be androgen-independent) male athymic nude mice (Harlan Sprague Dawley, Inc.) via a 27-gauge needle under halothane anesthesia. Tumour volume and serum PSA measurements (blood collected from the tail vein) were performed once per week after tumours became palpable. PSA levels were measured by ELISA (ClinPro International) and tumour size was calculated by the formula; length×width×depth×0.5236. Once serum PSA values reached 75-100 ng/mL, mice were treated with or without carbidopa. Carbidopa was purchased from Sigma and dissolved in DMSO. The solution was diluted in PBS to a final concentration of 10% DMSO and sterilized through a 0.2 μm filter. Carbidopa solution was injected intraperitoneally into half of the mice (25 mg per kg of body weight) for the +carbidopa groups, while the remaining mice received vehicle injections consisting of 10% DMSO in PBS (−carbidopa groups). Injections were carried out daily for the duration of the experiment. Each animal group contained 2-3 mice. PSA measurements were used to calculate PSA velocity and volume measurements were used to determine the tumour growth rate for all groups with linear regression slope analysis (see Statistical Analysis below). PSA velocity was defined as the increase in PSA level (normalized to pre-treatment value set at 100%) divided by number of days that PSA was reliably measurable (21 days). […] All animal procedures were performed according to the guidelines of the Canadian Council of Animal Care and with appropriate institutional certification. C4-2 xenograft tumour volume and PSA values (−/+carbidopa) were used for linear regression slope analysis to determine PSA velocity and tumour growth rate with GraphPad Prism 4, version 4.03. PSA velocity and tumour growth rate differences were determined using the Student's t-test.
# [1] = test system: parental LNCaP xenografts; assay: Parental LNCaP tumour xenografts in castrated mice, progression to androgen-independence; format: in vivo
# Procedure: Parental LNCaP cells were inoculated subcutaneously (s.c.), after resuspension in 0.1 mL of Matrigel (Becton Dickinson Labware), into two flank regions (2.5×10^6 cells/site) of 6 to 8 week old male athymic nude mice (Harlan Sprague Dawley, Inc.) via a 27-gauge needle under halothane anesthesia. Tumour volume and serum PSA measurements (blood collected from the tail vein) were performed once per week after tumours became palpable. PSA levels were measured by ELISA (ClinPro International) and tumour size was calculated by the formula; length×width×depth×0.5236. Once serum PSA values reached 75-100 ng/mL, mice were castrated and treated with or without carbidopa. Carbidopa was purchased from Sigma and dissolved in DMSO. The solution was diluted in PBS to a final concentration of 10% DMSO and sterilized through a 0.2 μm filter. Carbidopa solution was injected intraperitoneally into half of the mice (25 mg per kg of body weight) for the +carbidopa group, while the remaining mice received vehicle injections consisting of 10% DMSO in PBS (−carbidopa group). Injections were carried out daily for the duration of the experiment. Each animal group contained 5-6 mice. Serum PSA and tumour volume values were measured with progression to androgen-independence and normalized to pretreatment values (set at 100%) to obtain the mean percentage PSA and mean tumour volume of pre-treatment (±SEM). All animal procedures were performed according to the guidelines of the Canadian Council of Animal Care and with appropriate institutional certification. Statistical analysis was performed using the Student's t-test (two-sample equal variance) with JMPIN statistical software (Version 4.0.2, SAS Institute Inc.).
# [2] = test system: pure neuroendocrine tumour; conditions: in combination with other drugs; implanted prostate NE cancer cells; cited from earlier work
smiles,measurement,setting,value
"C[C@@](Cc1ccc(O)c(O)c1)(NN)C(=O)O [carbidopa, α-Methyl-dopahydrazine]",reduction of number of cells relative to control non-treated cells,"C4-2 cells; day 6, absence of androgen",1.58 fold
same,reduction of number of cells relative to control non-treated cells,"C4-2 cells; day 6, presence of androgen (0.1 nM R1881)",1.80 fold
same,reduction of tumour growth rate versus control,C4-2 xenografts; 21 days,2.1 fold
same,decrease in PSA velocity versus control non-treated,C4-2 xenografts; over 21 days,4.1 fold
same,tumour growth rate,"C4-2 xenografts; pre-castrated mice, 25 mg/kg i.p. daily, 21 days",5.7±0.6
same,PSA velocity (rate of PSA production),"C4-2 xenografts; pre-castrated mice, 25 mg/kg i.p. daily, over 21 days",4.7±2
same,decrease in PSA level with treatment versus control group,[1]; 11 weeks,4.3 fold
same,decrease in tumour growth versus control group,[1]; 11 weeks,5.4 fold
same,"tumour volume, of pre-treatment","[1]; castrated mice, 25 mg/kg i.p. daily, 11 weeks",478±97%
same,"serum PSA level, of pre-treatment","[1]; castrated mice, 25 mg/kg i.p. daily, 11 weeks (termination)",167±36%
same,"serum PSA level, of pre-treatment","[1]; castrated mice, 25 mg/kg i.p. daily, week 1",38±5%
same,"serum PSA level, of pre-treatment","[1]; castrated mice, 25 mg/kg i.p. daily, week 10",148±34%
same,increase of tumour volume from pre-treatment volume,[1]; over 11 weeks,about 5 fold
same,reduction of tumour growth,[2],40%
